{
  "source": "patent US20240000142A1",
  "about": "“AEROSOL […] FOR AQUEOUS CANNABINOID COMPOSITIONS” (OMEGA LIFE SCIENCE LTD., priority 2020, published 2024)",
  "origin": "cited, not measured here",
  "details": "nicotine as a weak base; \"as appreciated by the skilled in the art\"",
  "data": [
    {"compound": "CN1CCCC1c1cccnc1", "note": "(stereo not shown) [nicotine]", "values": [
      {"measurement": "pKa", "value": "about 8"}
    ]}
  ]
}
